From patent publication US10251937B2, “Retro-inverso analogs of spadin display increased antidepressant effects” (MEDINCELL, priority 2014, dated 2019)
Ends that are not written are not given here.

What was measured:
dogs = dogs with separation anxiety; cited from earlier work
[1] = biological target: T1, human two-pore domain potassium channel TREK-1 (Homo sapiens, UniProt O95069); settings: Kennard et al; cited from earlier work
T1 sequence (O95069 1-426): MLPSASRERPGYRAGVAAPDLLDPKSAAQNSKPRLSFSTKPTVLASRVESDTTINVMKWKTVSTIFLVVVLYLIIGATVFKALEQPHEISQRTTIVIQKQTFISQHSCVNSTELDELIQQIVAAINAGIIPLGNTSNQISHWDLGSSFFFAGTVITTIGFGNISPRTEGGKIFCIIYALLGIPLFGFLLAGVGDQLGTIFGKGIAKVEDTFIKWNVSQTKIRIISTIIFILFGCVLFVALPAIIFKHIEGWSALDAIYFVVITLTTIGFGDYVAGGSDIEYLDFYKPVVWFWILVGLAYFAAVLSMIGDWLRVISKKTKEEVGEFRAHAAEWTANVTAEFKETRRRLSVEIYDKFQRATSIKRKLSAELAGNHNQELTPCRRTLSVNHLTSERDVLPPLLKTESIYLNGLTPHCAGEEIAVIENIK

C57Bl/6J mice [2] = experiment: Forced Swimming Test (FST) in naive mice; format: in vivo
Procedure: Naïve male C57Bl/6J mice from 7 to 9 weeks old were used in all experiments (Janvier laboratory). Mice were housed 10 animals per cage under a 12-h light/12-h dark cycle (light on at 8:00 am), in a ventilated room at a temperature of 22±1° C. Animals had free access to water and food (A03; SAFE, Augy, France). All experiments were conducted according to policies on the care and use of laboratory animals of the Society for Neuroscience, and also with respect to national laws on animal use. The local Ethics Committee (CIEPAL) approved the experiments.
(§1) Stock solutions were prepared of 2 mg/mL (10^-3M) in distilled water, and before injection spadin solution was diluted in NaCl 0.9% to obtain the different concentrations used for treatments. Corticosterone (Sigma-Aldrich, France) was dissolved in drinking water at the concentration of 3.5 mg/L in the presence of 4.5 g/L of beta-cyclodextrin. […] Fluoxetine (Sigma-Aldrich, France) was dissolved in drinking water at the dose of 80 mg/L and administered during 21 days. For i.p. administration, fluoxetine (TEVA Santé, France) was dissolved in NaCl 0.9% at a concentration of 0.75 mg/mL. The amount injected was 3 mg/kg. Spadin and analogues were administered by i.v. injection. For acute treatment, drugs were administered in a single 100 μL bolus 30 min prior to the beginning of the behavioral tests. For subchronic treatment drugs were injected during 4 consecutive days and behavioral tests were performed on day 5, without additional injection.
The animals were individually placed in a non-escapable cylinder (height 30 cm, diameter 15 cm) filled with 15 cm-water at 22±1° C. The trial was conducted for 6 min. The total period of immobility was manually measured during the last 4 min of the test. A mouse was considered immobile when it remained floating with only slight movements to keep its head above water.

C57Bl/6J mice [3] = experiment: Novelty Suppressed Feeding (NSF) test; format: in vivo; settings: 10 μg/kg i.v. daily for 4 days, test on day 5
Procedure: as §1
The NSF paradigm is a two day test protocol. Day one, mice were deprived from food. Day two mice were placed in a highly brightly lit area, in a plastic box (45×45×20 cm), with a floor covered with wooden bedding. The test was carried out during a 10 min period; during this time the latency to eat was measured. During the test a single pellet of food was placed in the center of the box, on a white platform.

[4] = system: dentate gyrus of the mouse hippocampus; experiment: Hippocampal neurogenesis, BrdU-positive cell count; format: in vivo; settings: 4 day treatment, 10 μg/kg i.v.
Procedure: One day after the injections of 5-bromo-2-deoxyuridine (BrdU), 12 mg per animal divided in four bolus of 100 μl injected every two hours with spadin or Analog 3 (SEQ ID NO:4) and Analog 8 (SEQ ID NO:9), mice were anesthetized with isoflurane and transcardially perfused with 20 mL of 0.9% NaCl followed by 20 mL paraformaldehyde in 4%/NaCl at a concentration of 0.9%. By using a vibratome (Leica) brains were cut in 40 μm sections, throughout the entire hippocampus. Eight slices, from bregma 3.3 to bregma 5.3, were retained to process the BrdU immunohistochemistry as previously described (Heurteaux, C. et al. Deletion of the background potassium channel TREK-1 results in a depression-resistant phenotype. Nat Neurosci 9, 1134, (2006)). For each BrdU labeling, slices were first incubated with a mouse monoclonal anti-BrdU antibody (1/8000, Becton Dinckinson). […]
It was previously shown that a 4-days subchronic treatment with spadin increased the hippocampal neurogenesis (Mazella, J. et al. Spadin, a sortilin-derived peptide, targeting rodent TREK-1 channels: a new concept in the antidepressant drug design. PLoS Biol 8, e1000355, (2010)). […] The neurogenesis in the dentate gyrus of the mouse hippocampus was analyzed by counting the number of progenitor cells that incorporated the DNA synthesis marker 5-bromo-2′deoxyuridine (BrdU).

Molecule | dogs less depressive as indicated by better behavior (dogs) [%] | effect on human TREK-1 channel [1] | immobility time, FST, acute treatment (C57Bl/6J mice [2]; 10 μg/kg acute i.v., measured 30 minutes after injection, n=10) [s] | immobility time, FST, subchronic treatment (C57Bl/6J mice [2]; 10 μg/kg i.v. once a day for 4 days, test on day 5) [s] | time of immobility, FST time course (C57Bl/6J mice [2]; 3 h after injection (order of listing)) [s] | remaining efficiency, % of the initial efficacy, FST (C57Bl/6J mice [2]; 3 h after the injection) [%] | time of immobility, FST time course (C57Bl/6J mice [2]; 7 h after injection (order of listing)) [s] | time of immobility, FST time course (C57Bl/6J mice [2]; 17 h after injection (order of listing)) [s] | reduction of immobility times, FST (C57Bl/6J mice [2]; after 17 h) | time of immobility, FST time course (C57Bl/6J mice [2]; first (initial) time point after injection, time not given) [s] | remaining efficiency, % of the initial efficacy, FST (C57Bl/6J mice [2]; seven hours after the injection) [%] | latency to feed, NSF (C57Bl/6J mice [3]) [s] | number of BrdU-positive cells in the subgranular zone compared to saline [4]
CNCCC(Oc1ccc(C(F)(F)F)cc1)c1ccccc1 (stereo not shown) [fluoxetine] | 73 | inhibit |  |  |  |  |  |  |  |  |  |  | 
APLPRWSGPIGVSWGLR [spadin, APLPRWSGPIGVSWGLR] |  |  | 107.40 ± 5.05 | 123.70 ± 7.16 | 113.2 ± 5.0 | 84 | 150.8 ± 6.5 | 175.3 ± 7.5 | no reduction in the immobility times | 102.4 ± 6.2 | 30 | 151.11 ± 17.70 | significantly increased
